Results: US6090987A, “Metal-ligand complex catalyzed processes” (Union Carbide Chemicals & Plastics Technology Corporation, priority 1998, dated 2000)

Tests used:
[1] = Residual propylene hydroformylation activity after heat treatment, Ligand F catalyst (Table 1)
Description: A catalyst solution (100 milliliters) was generated in a six ounce Fisher Porter Bottle by dissolving 0.063 grams of rhodium dicarbonyl 2,4-pentanedionate, 0.8 grams of Ligand F, 20 grams of n-butyraldehyde, and 78.7 grams of tetraethylene glycol dimethyl ether, subsequently alternately evacuating and flushing with nitrogen; and finally adding 60 psi of CO:H2, and placing the bottles in a 100° C. oil bath for 1 hour.
(§1) After closing the reactor, the system was again purged with nitrogen and place in an oil bath heated to 100° C. The hydroformylation reaction in each experiment was conducted at a total gas pressure of 160 psig. The target partial pressure of hydrogen, carbon monoxide, and propylene being about 45 psia, 45 psia, and 5 psia respectively, with the remainder being nitrogen. The flows of the feed gases (carbon monoxide, hydrogen, propylene, and nitrogen) were controlled individually with mass flow meters. The feed gases were dispersed into the precursor solution via stainless steel 7-micron filters used as spargers. The unreacted portion of the feed gases stripped out the product aldehydes. Each experiment was operated for 24 hours under the above conditions. The activity is defined as the observed reaction rate divided by the predicted reaction rate. The reaction rates are expressed in terms of gram moles per liter per hour.
The same procedure as in Example 2 was followed with the exception that a slow stream of 1,2-propadiene was purged through the initially generated catalyst solution for 5 minutes. Excess was then removed by alternately evacuating and flushing with nitrogen. The resulting solution was heated at 125° C. as in Example 2, and 20 milliliters of the resulting solution was transferred to a glass reactor as in Example 2 and the activity determined.
(§2) The same procedure as in Example 3 was followed except 2 milliliters of 1,3-butadiene was added to the generated catalyst and stirred for 5 minutes. Excess 1,3-butadiene was then removed by alternate evacuation and flushing with nitrogen. The resulting solution was heated at 125° C. as in Example 2, and 20 milliliters of the resulting solution was transferred to a glass reactor as in Example 2 and the activity determined.
The same procedure as in Example 4 was followed with the exception that 50 milliliters of a catalyst solution generated as in Example 2 was treated with 0.5 milliliters of 2-methyl-1,3-butadiene (isoprene) in place of 1,3-butadiene.
A catalyst solution (20 milliliters) was generated in a Fisher Porter Bottle as in Example 2 under 60 psi CO:H2 for 1 hour, then cooled to room temperature and treated with 0.5 milliliters of 1,3-butadiene. The solution was removed from the Fisher Bottle by hypodermic syringe and transferred to a 100 milliliter stirred stainless vessel and maintained at 140° C. under 15 psi nitrogen for 14 hours. The resulting solution was then transferred to the glass reactors as in Example 2, and the residual catalyst activity measured. […]
The same procedure as in Example 8 was followed except allene was employed in place of 1,3-butadiene, and the resulting solution heated at 140° C. for 48 hours without removing excess allene.
A 20 milliliter sample of freshly generated catalyst solution (prepared as in Example 2) was charged to the glass reactors and the activity measured.
The same procedure as in Example 8 was followed except 0.4 grams of 1,3-cyclohexadiene was employed in place of 1,3-butadiene.

[2] = Residual propylene hydroformylation activity after heat treatment, Ligand D catalyst (Table 1); settings: fresh catalyst control, no heat treatment
Description: as §1, with “About 20 milliliters of the solution was charged to a glass reactor via a syringe after purging the reactor with nitrogen (see Examples 14-20 below). After” for “After”
as §2
The same procedure as in Example 4 was followed except Ligand D (as identified herein) was employed in place of Ligand F. The results are given in Table 1.
The same procedure as in Example 10 was followed except the fresh catalyst solution contained Ligand D in place of Ligand F. The results are given in Table 1.

[3] = Decomposition of free Ligand F and deactivated complex formation at 145° C. by HPLC (FIG. 3); assay type: physicochemical; settings: nitrogen 80 psig, no diene
Description: A catalyst solution (5 milliliters), 600 parts per million in rhodium and 0.8 weight percent in Ligand F generated as in Example 2 was charged to a 3 ounce Fisher Porter bottle and alternately flushed evacuated with nitrogen, then placed in a 145° C. oil bath under nitrogen (80 psig total pressure) and then monitored by HPLC at 1 and 3 hours for the Ligand F and deactivated complex concentrations. The free Ligand F concentration was 0.75, 0.57 and 0.37 weight percent at 0, 1 and 3 hours, respectively, while the deactivated complex concentration was 0.010, 0.57 and 0.89 weight percent at 0, 1 and 3 hours respectively.
The same procedure as in Example 21 was followed except the catalyst solution was treated with 1 milliliter of 1,3-butadiene and then heated at 145° C. for 3 hours (45 psig total pressure). The free Ligand F concentration measured by HPLC (high pressure liquid chromatography) was 0.75, 0.66, and 0.62 weight percent at 0, 1 and 3 hours, respectively, while the deactivated complex concentration was 0.010, 0.012, and 0.05 weight percent at 0, 1 and 3 hours respectively.

[4] = Propylene hydroformylation rate and colour of (TPP)3 Rh(CO)H catalyst after thermal treatment; settings: for hydroformylation rate: control without butadiene, 100° C.; for color change of catalyst solution: control
Description: TPP is triphenylphosphine. 15 grams of this bright yellow solution was charged to a Fisher Porter bottle under inert gas. To this solution was added 20 psi of butadiene with stirring. The pressure dropped as the butadiene dissolved into the solution. The reactor was repressured twice with butadiene (20 psig) and then the reaction was place under a total of 45 psig with nitrogen. The solution was heated to 120° C. for 15 minutes. […] At ambient temperature, the reaction was placed under vacuum for 4 hours to remove any excess butadiene.
Since the solvent has a very high boiling point, the concentration of rhodium was assumed to have remained unchanged while under vacuum. Indeed, no change in volume was detected visually while under vacuum. 15.0 milliliters of the 275 parts per million solution was charged to a 100 milliliter autoclave.
This example is a control for Example 23. 15 grams of the catalyst solution prepared in Example 23 was charged to a Fisher Porter bottle under inert gas. 45 psig of nitrogen was added to the reaction vessel, then the reaction was heated to 120° C. for 15 minutes. […] 15.0 milliliters of the 275 parts per million solution was charged to a 100 milliliter autoclave.
A catalyst solution was prepared by adding 113 milligrams of (TPP)3 Rh(CO)H to 40.4 grams Filmer IBT® available from Union Carbide Corporation, Danbury, Conn., resulting in a rhodium concentration of 312 parts per million. At this point, the rhodium complex was a suspended in the solvent. Approximately 20 grams of this solution of (TPP)3 Rh(CO)H in tetraglyme was charged to a Fisher Porter bottle under inert gas. To this solution was added 30 psi of butadiene with stirring. The pressure dropped to 20 psig as the butadiene dissolved into the solution. The reactor was repressured twice with butadiene (30 psig) and then the pressure was adjusted to 60 psig with nitrogen. The solution was placed into 140° C. oil bath, which caused the reaction to become homogeneous within a minute. The reaction was maintained at 140° C. for 50 minutes. […] The reaction vessel was removed from the oil bath and the butadiene was vented from the reactor while the reaction was hot. After gas evolution ceased, the reaction vessel was placed carefully placed under dynamic vacuum until gas evolution had ceased for 10 minutes. The reaction was then placed under a slight positive pressure of nitrogen. […] 15.0 milliliters of the 284 parts per million solution was charged to a 100 milliliter autoclave.
This example serves as a control for Example 25. Approximately 20 grams of the solution prepared in Example 25 was charged to a Fisher Porter bottle under inert gas. 60 psig of nitrogen was added to the reaction vessel, then the reaction was heated to 140° C. for approximately 110 minutes. […] This solution was place into and out of the oil bath at the same time as the solution in Example 25. After thermal treatment, 10 weight percent of triphenylphosphine was added to the reaction mixture. […] 15 milliliters of the 284 parts per million solution was charged to a 100 milliliter autoclave.

[5] = 140° C./24 hours, excess diene present
[6] = 125° C./24 hours, no excess diene
[7] = 140° C./48 hours, excess diene present
[8] = 125° C./50 hours, no excess diene

Structure (SMILES): C1=CCCC=C1 [1,3-cyclohexadiene]
- % Activity [1, 5]: 4.13%
- Final Rate [1, 5]: 0.09 gram moles per liter per hour

Structure (SMILES): C=C=C [Allene, 1,2-propadiene]
- % Activity [1, 6]: 101%
- Final Rate [1, 6]: 2.22 gram moles per liter per hour
- % Activity [1, 7]: 47.2%
- Final Rate [1, 7]: 1.03 gram moles per liter per hour

Structure (SMILES): C=CC(=C)C [Isoprene, 2-methyl-1,3-butadiene]
- % Activity [1, 8]: 73.8%
- Final Rate [1, 8]: 1.55 gram moles per liter per hour

Structure (SMILES): COc1cc(-c2cc(OC)cc(C(C)(C)C)c2Op2oc3ccccc3c3ccccc3o2)c(Op2oc3ccccc3c3ccccc3o2)c(C(C)(C)C)c1 [Ligand D, 6,6'-[[3,3'-bis(1,1-dimethylethyl)-5,5'-dimethoxy-[1,1' -biphenyl]-2,2'-diyl]bis(oxy)]bis-dibenzo[d,f][1,3,2]dioxaphosphepin]
- Final Rate [2]: 1.16 gram moles per liter per hour

Structure (SMILES): CC(C)(C)c1cc(-c2cc(C(C)(C)C)cc(C(C)(C)C)c2Op2oc3ccccc3c3ccccc3o2)c(Op2oc3ccccc3c3ccccc3o2)c(C(C)(C)C)c1 [Ligand F]
- % Activity [1, 6]: 10.0%
- Final Rate [1, 6]: 0.22 gram moles per liter per hour
- Final Rate ([1]; fresh catalyst control, no heat treatment): 2.18 gram moles per liter per hour
- deactivated complex concentration ([3]; 0 hours): 0.010 weight percent
- free Ligand F concentration ([3]; 0 hours): 0.75 weight percent
- deactivated complex concentration ([3]; 1 hour): 0.57 weight percent
- free Ligand F concentration ([3]; 1 hour): 0.57 weight percent
- deactivated complex concentration ([3]; 3 hours): 0.89 weight percent
- free Ligand F concentration ([3]; 3 hours): 0.37 weight percent

Structure (SMILES): c1ccc(P(c2ccccc2)c2ccccc2)cc1 [triphenylphosphine, reference compound]
- hydroformylation rate ([4]; after 120° C. for 15 minutes under nitrogen, 275 ppm Rh, 115 psig): 0.8 gmol/L-h
- hydroformylation rate ([4]; after 140° C. for approximately 110 minutes, 284 ppm Rh, 95 psig): 0.3 gmol/L-h
- color change of catalyst solution ([4]; 120° C. for 15 minutes under nitrogen): turn from bright yellow to dark brown
- color change of catalyst solution ([4]; 140° C. for approximately 110 minutes under nitrogen): turn from bright yellow to dark brown
